Numbered stars: 1 amine (or outer) side, 2 acyl side, 3 side chain; on linkers, the order of the positions; unused ones are H or OH. Bridge positions count the residues as written; N and C are the ends. Square brackets hold non-standard residues; d marks the D form. Side chains are listed from the residue outwards. Peptide text beside a SMILES is read from it. * marks the point of attachment. ξ: configuration not given here. PEG24 = NCCOCCOCCOCCOCCOCCOCCOCCOCCOCCOCCOCCOCCOCCOCCOCCOCCOCCOCCOCCOCCOCCOCCOCCOCCC(=O)O; Ala(piperidin-4-yl) = O=C([C@H](CC1CCN([*:3])CC1)N[*:1])[*:2]; DOTA = O=C(O)CN1CCN(CC(=O)O)CCN(CC(=O)*)CCN(CC(=O)O)CC1; Trp(7-Me) = Cc1cccc2c(C[C@H](N)C(=O)O)c[nH]c12; γGlu = O=C(O)[C@H](CCC(=O)[*:2])N[*:1]; 2Nal = N[C@@H](Cc1ccc2ccccc2c1)C(=O)O; Palmitoyl = CCCCCCCCCCCCCCCC(=O)*; αMeI = CC[C@H](C)[C@](C)(N)C(=O)O; Trx = NC[C@H]1CC[C@H](C(=O)O)CC1; 3Pal = N[C@@H](Cc1cccnc1)C(=O)O; Chg = N[C@H](C(=O)O)C1CCCCC1; ξαMeD = CC(N)(CC(=O)O)C(=O)O; Lauroyl = CCCCCCCCCCCC(=O)*; 4Amb = NCc1ccc(C(=O)O)cc1; Orn = NCCC[C@H](N)C(=O)O; Ahx = NCCCCCC(=O)O; Sar = CNCC(=O)O
Biological target: T1, human DLL3 (Homo sapiens, UniProt Q9NYJ7)
T1 sequence (Q9NYJ7 27-618): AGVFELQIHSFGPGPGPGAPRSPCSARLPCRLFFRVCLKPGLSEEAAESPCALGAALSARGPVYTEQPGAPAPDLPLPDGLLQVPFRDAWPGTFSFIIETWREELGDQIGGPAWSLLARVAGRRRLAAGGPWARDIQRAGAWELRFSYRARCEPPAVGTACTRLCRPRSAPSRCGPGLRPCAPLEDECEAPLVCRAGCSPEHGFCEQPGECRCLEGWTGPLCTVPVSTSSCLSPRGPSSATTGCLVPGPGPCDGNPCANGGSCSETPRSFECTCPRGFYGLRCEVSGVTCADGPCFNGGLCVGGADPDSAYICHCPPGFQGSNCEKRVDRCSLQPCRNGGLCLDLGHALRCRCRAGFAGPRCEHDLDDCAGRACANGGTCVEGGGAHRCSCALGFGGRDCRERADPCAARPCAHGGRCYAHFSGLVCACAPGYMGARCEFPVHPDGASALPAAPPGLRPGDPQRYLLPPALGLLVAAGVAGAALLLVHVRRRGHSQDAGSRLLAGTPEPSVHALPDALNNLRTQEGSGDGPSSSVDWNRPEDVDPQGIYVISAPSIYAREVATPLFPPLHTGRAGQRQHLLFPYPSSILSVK
Assay: Affinity determination by Surface Plasmon Resonance (SPR)
Format: binding
Details: 25° C., biotinylated human DLL3 immobilized on streptavidin sensor chip, 1:1 binding model; read-out: SPR KD
In short: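 Biotinylated human DLL3 was captured on a streptavidin chip with a reference surface. Compounds at several concentrations were injected at 100 μL/minute in phosphate buffer (137 mM NaCl, 2.7 mM KCl, 0.05% P20, 2% DMSO). Affinity and kinetics came from 1:1 model fits of the sensorgrams.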

| SMILES | Kd [nM] |
| --- | --- |
| CCCCCCCCCCCC(=O)NCCCC[C@@H]1NC(=O)[C@H](Cc2ccc3ccccc3c2)NC(=O)[C@H](CC(N)=O)NC(=O)[C@H](CC(N)=O)NC(=O)[C@@H](NC(=O)[C@@H](NC(=O)[C@@H](NC(=O)[C@H](Cc2c[nH]c3ccccc23)NC(C)=O)[C@@H](C)O)[C@@H](C)CC)CSSC[C@@H](C(=O)N[C@@H](Cc2c[nH]c3ccccc23)C(=O)N2CCC[C@H]2C(=O)N[C@H](CCCCNC(=O)CC[C@H](NC(=O)CC[C@H](NC(=O)CC[C@H](NC(=O)CN2CCN(CC(=O)O)CCN(CC(=O)O)CCN(CC(=O)O)CC2)C(=O)O)C(=O)O)C(=O)O)C(N)=O)NC(=O)[C@H](CC(=O)O)NC1=O [compound 368, Ac-W-T-I-C(3)-N-N-(2Nal)-K(C12)-D-C(3)-W-P-[D-Lys(gE-gE-gE-DOTA)]-NH2] (Ac-WTICNN[2Nal]K(Lauroyl)DCWP[dK]([γGlu-γGlu-γGlu-DOTA])-NH2; disulfide 4-10) | 1 to 10 |
| CCCCCCCCCCCC(=O)NCCCC[C@@H]1NC(=O)[C@H](Cc2ccc3ccccc3c2)NC(=O)[C@H](CC(N)=O)NC(=O)[C@H](CC(N)=O)NC(=O)[C@@H](NC(=O)[C@@H](NC(=O)[C@@H](NC(=O)[C@H](Cc2c[nH]c3c(C)cccc23)NC(C)=O)[C@@H](C)O)[C@@H](C)CC)CSSC[C@@H](C(=O)N[C@@H](Cc2c[nH]c3ccccc23)C(=O)N2CCC[C@H]2C(=O)N[C@H](CCCCNC(=O)CN2CCN(CC(=O)O)CCN(CC(=O)O)CCN(CC(=O)O)CC2)C(N)=O)NC(=O)[C@H](CC(=O)O)NC1=O [compound 369, Ac-(7Me-W)-T-I-C(3)-N-N-(2Nal)-H-D-C(3)-W-P-[D-Lys(DOTA)]-NH2] (Ac-[Trp(7-Me)]TICNN[2Nal]K(Lauroyl)DCWP[dK](DOTA)-NH2; disulfide 4-10) | 1 to 10 |
| CC[C@H](C)[C@H](NC(=O)[C@@H](NC(=O)[C@H](Cc1c[nH]c2ccccc12)NC(C)=O)[C@@H](C)O)C(=O)N[C@H]1CSSC[C@@H](C(=O)N[C@@H](Cc2c[nH]c3ccccc23)C(=O)N2CCC[C@H]2C(=O)N(C)CC(=O)N(C)CC(=O)N(C)CC(=O)N(C)CC(=O)N(C)CC(=O)N[C@H](CCCCNC(=O)CN2CCN(CC(=O)O)CCN(CC(=O)O)CCN(CC(=O)O)CC2)C(N)=O)NC(=O)[C@H](CC(=O)O)NC(=O)[C@H](Cc2cnc[nH]2)NC(=O)[C@H](Cc2ccc3ccccc3c2)NC(=O)[C@H](CC(N)=O)NC(=O)[C@H](CC(N)=O)NC1=O [compound 371, Ac-W-T-I-C(3)-N-N-(2Nal)-H-D-C(3)-W-P-(Sar)5-[D-Lys(DOTA)]-NH2] (Ac-WTICNN[2Nal]HDCWP[Sar][Sar][Sar][Sar][Sar][dK](DOTA)-NH2; disulfide 4-10) | < 1 |
| CC[C@H](C)[C@H](NC(=O)[C@@H](NC(=O)[C@H](Cc1c[nH]c2ccccc12)NC(C)=O)[C@@H](C)O)C(=O)N[C@H]1CSSC[C@@H](C(=O)N[C@@H](Cc2c[nH]c3ccccc23)C(=O)N2CCC[C@H]2C(=O)NC[C@H]2CC[C@H](C(=O)NC[C@H]3CC[C@H](C(=O)N[C@H](CCCCNC(=O)CN4CCN(CC(=O)O)CCN(CC(=O)O)CCN(CC(=O)O)CC4)C(N)=O)CC3)CC2)NC(=O)[C@H](CC(=O)O)NC(=O)[C@H](Cc2cnc[nH]2)NC(=O)[C@H](Cc2ccc3ccccc3c2)NC(=O)[C@H](CC(N)=O)NC(=O)[C@H](CC(N)=O)NC1=O [compound 373, Ac-W-T-I-C(3)-N-N-(2Nal)-H-D-C(3)-W-P-(Cyx)2-[D-Lys(DOTA)]-NH2] (Ac-WTICNN[2Nal]HDCWP[Trx][Trx][dK](DOTA)-NH2; disulfide 4-10) | < 1 |
| CC[C@H](C)[C@H](NC(=O)[C@@H](NC(=O)[C@H](Cc1c[nH]c2ccccc12)NC(C)=O)[C@@H](C)O)C(=O)N[C@H]1CSSC[C@@H](C(=O)N[C@@H](Cc2c[nH]c3ccccc23)C(=O)N2CCC[C@H]2C(=O)NCc2ccc(C(=O)N[C@H](CCCCNC(=O)CN3CCN(CC(=O)O)CCN(CC(=O)O)CCN(CC(=O)O)CC3)C(N)=O)cc2)NC(=O)[C@H](CC(=O)O)NC(=O)[C@H](Cc2c[nH]cn2)NC(=O)[C@H](Cc2ccc3ccccc3c2)NC(=O)[C@H](CC(N)=O)NC(=O)[C@H](CC(N)=O)NC1=O [compound 374, Ac-W-T-I-C(3)-N-N-(2Nal)-H-D-C(3)-W-P-(AMBX)-[D-Lys(DOTA)]-NH2] (Ac-WTICNN[2Nal]HDCWP[4Amb][dK](DOTA)-NH2; disulfide 4-10) | < 1 |
| CCCCCCCCCCCCCCCC(=O)N[C@@H](CCC(=O)NCCOCCOCCOCCOCCOCCOCCOCCOCCOCCOCCOCCOCCOCCOCCOCCOCCOCCOCCOCCOCCOCCOCCOCCOCCC(=O)NCCCC[C@@H]1NC(=O)[C@H](Cc2ccc3ccccc3c2)NC(=O)[C@H](CC(N)=O)NC(=O)[C@H](CC2CCNCC2)NC(=O)[C@@H](NC(=O)[C@@H](NC(=O)[C@@H](NC(=O)[C@H](Cc2c[nH]c3ccccc23)NC(C)=O)[C@@H](C)O)C2CCCCC2)CSSC[C@@H](C(=O)N[C@@H](Cc2c[nH]c3ccccc23)C(=O)N2CCC[C@H]2C(=O)N[C@H](CCCCNC(=O)CN2CCN(CC(=O)O)CCN(CC(=O)O)CCN(CC(=O)O)CC2)C(N)=O)NC(=O)[C@H](CC(=O)O)NC1=O)C(=O)O [compound 426, Ac-WT-(Chg)-C(3)-[3-(4-piperidinyl)-Ala]-N-(2Nal)-Lys(PEG24-[gE(C16)]-OH)-D-C(3)-W-P-[D-Lys(DOTA)]-NH2] (Ac-WT[Chg]C[Ala(piperidin-4-yl)]N[2Nal]K([PEG24-γGlu-Palmitoyl])DCWP[dK](DOTA)-NH2; disulfide 4-10) | 1 to 10 |

More lines, now with the values ahead:

| Kd [nM] | SMILES |
| --- | --- |
| < 1 | CC[C@H](C)[C@H](NC(=O)[C@@H](NC(=O)[C@H](Cc1c[nH]c2ccccc12)NC(C)=O)[C@@H](C)O)C(=O)N[C@H]1CSSC[C@@H](C(=O)N[C@@H](Cc2c[nH]c3ccccc23)C(=O)N2CCC[C@H]2C(=O)N[C@H](CCCCNC(=O)CN2CCN(CC(=O)O)CCN(CC(=O)O)CCN(CC(=O)O)CC2)C(N)=O)NC(=O)[C@H](CC(=O)O)NC(=O)[C@H](Cc2cccnc2)NC(=O)[C@H](Cc2ccc3ccccc3c2)NC(=O)[C@H](CC(N)=O)NC(=O)[C@H](CC(N)=O)NC1=O [compound 366, Ac-W-T-I-C(3)-N-N-(2Nal)-(3Pya)-D-C(3)-W-P-[D-Lys(DOTA)]-NH2] (Ac-WTICNN[2Nal][3Pal]DCWP[dK](DOTA)-NH2; disulfide 4-10) |
| < 1 | CC[C@H](C)[C@H](NC(=O)[C@@H](NC(=O)[C@H](Cc1c[nH]c2ccccc12)NC(C)=O)[C@@H](C)O)C(=O)N[C@H]1CSSC[C@@H](C(=O)N[C@@H](Cc2c[nH]c3ccccc23)C(=O)N2CCC[C@H]2C(=O)NCCCCCC(=O)NCCCCCC(=O)N[C@H](CCCCNC(=O)CN2CCN(CC(=O)O)CCN(CC(=O)O)CCN(CC(=O)O)CC2)C(N)=O)NC(=O)[C@H](CC(=O)O)NC(=O)[C@H](Cc2cnc[nH]2)NC(=O)[C@H](Cc2ccc3ccccc3c2)NC(=O)[C@H](CC(N)=O)NC(=O)[C@H](CC(N)=O)NC1=O [compound 372, Ac-W-T-I-C(3)-N-N-(2Nal)-H-D-C(3)-W-P-(Ahx)2-[D-Lys(DOTA)]-NH2] (Ac-WTICNN[2Nal]HDCWP[Ahx][Ahx][dK](DOTA)-NH2; disulfide 4-10) |
| < 1 | CC[C@H](C)[C@H](NC(=O)[C@@H](NC(=O)[C@H](Cc1c[nH]c2ccccc12)NC(C)=O)[C@@H](C)O)C(=O)N[C@H]1CSSC[C@@H](C(=O)N[C@@H](Cc2c[nH]c3ccccc23)C(=O)N2CCC[C@H]2C(=O)N[C@H](CCCCNC(=O)CN2CCN(CC(=O)O)CCN(CC(=O)O)CCN(CC(=O)O)CC2)C(=O)O)NC(=O)[C@H](CC(=O)O)NC(=O)[C@H](CCCN)NC(=O)[C@H](Cc2ccc3ccccc3c2)NC(=O)[C@H](CC(N)=O)NC(=O)[C@H](CC(N)=O)NC1=O [compound 376, Ac-W-T-I-C(3)-N-N-(2Nal)-Orn-D-C(3)-W-P-[D-Lys(DOTA)]-NH2] (Ac-WTICNN[2Nal][Orn]DCWP[dK](DOTA)-OH; disulfide 4-10) |
| 10 to 100 | CC[C@H](C)[C@](C)(NC(=O)[C@@H](NC(=O)[C@H](Cc1c[nH]c2ccccc12)NC(C)=O)[C@@H](C)O)C(=O)N[C@H]1CSSC[C@@H](C(=O)N[C@@H](Cc2c[nH]c3ccccc23)C(=O)N2CCC[C@H]2C(=O)N[C@H](CCCCNC(=O)CN2CCN(CC(=O)O)CCN(CC(=O)O)CCN(CC(=O)O)CC2)C(N)=O)NC(=O)[C@H](CC(=O)O)NC(=O)[C@H](Cc2cnc[nH]2)NC(=O)[C@H](Cc2c[nH]c3ccccc23)NC(=O)[C@H](CC(N)=O)NC(=O)[C@H](CC(N)=O)NC1=O [compound 409, Ac-W-T-(aMe-I)-C(3)-N-N-W-H-D-C(3)-W-P-[D-Lys(DOTA)]-NH2] (Ac-WT[αMeI]CNNWHDCWP[dK](DOTA)-NH2; disulfide 4-10) |
| 1 to 10 | CC[C@H](C)[C@H](NC(=O)[C@@H](NC(=O)[C@H](Cc1c[nH]c2ccccc12)NC(C)=O)[C@@H](C)O)C(=O)N[C@H]1CSSC[C@@H](C(=O)N[C@@H](Cc2c[nH]c3ccccc23)C(=O)N2CCC[C@H]2C(=O)N[C@H](CCCCNC(=O)CN2CCN(CC(=O)O)CCN(CC(=O)O)CCN(CC(=O)O)CC2)C(N)=O)NC(=O)C(C)(CC(=O)O)NC(=O)[C@H](Cc2cnc[nH]2)NC(=O)[C@H](Cc2c[nH]c3ccccc23)NC(=O)[C@H](CC(N)=O)NC(=O)[C@H](CC(N)=O)NC1=O (stereo partly drawn) [compound 410, Ac-W-T-I-C(3)-N-N-W-H-(aMe-D)-C(3)-W-P-[D-Lys(DOTA)]-NH2] (Ac-WTICNNWH[ξαMeD]CWP[dK](DOTA)-NH2; disulfide 4-10) |

Reference: patent US20250011368A1, “DLL3 TARGETING PEPTIDES AND CONSTRUCTS THEREOF” (MARIANA ONCOLOGY INC., priority 2023, published 2025)
